The nature of series [1]: Physical stability on drying and at humidity (RH >90%), by PXRD and Karl-Fisher. The format is physicochemical. The procedure:
The physical stability of the amorphous form, Form γ and literature Form α of Perindopril (L)-Arginine was determined by storing approximately 3.0 g of the sample a) at 50° C., b) at 70° C., c) at 100° C. and d) at 90% Relative Humidity (RH). […]

Series [2] is described as follows: Transformation kinetics: solvent-mediated polymorph transformation (slurry in solvents, PXRD). The format is physicochemical. The following applies: for Result (polymorphic form by PXRD after slurry): stirred 12 hours; for Form conversion: stirred in toluene or acetonitrile for more than 15 hrs at room temperature; for Form conversion or dissociation: slurry in heptane. As to the method: Solvent-mediated polymorph transformations are an effective method to measure the physical stability for both metastable and thermodynamically stable polymorphs. This study is carried out by slurring 1 g of Form γ, amorphous and literature Form α of Perindopril (L)-Arginine salt in different solvents at 25 to 30° C. for several hours. The solid samples are then characterized by PXRD (example 10, Table 6).
1 g of Perindopril (L)-Arginine salt is suspended in appropriate solvents at different temperature and stirred for 12 hours to afford form γ of Perindopril (L)-Arginine.

Series [3] is described as follows: Solid state stability at accelerated stress conditions (40° C./75% relative humidity). The format is physicochemical. To be noted: 40° C./75% RH. The procedure:
The present invention is to provide Perindopril (L)-Arginine (γ) form having the degree of crystallinity under 60%, which has enhanced stability to heat and humidity. According to the present invention, the obtained Perindopril (L)-Arginine (γ) form is subjected to accelerated stability at 40° C. and relative humidity (RH) 75%.
The samples were tested by PXRD, Karl-Fisher titrator and HPLC for final purity and degradation products.

Series [4] can be described thus: Hygroscopic studies at different relative humidities. The format is physicochemical. To be noted: stored in different relative humidities for 1 to 3 months.
The conditions of series [5]: tablets, temperate-climate countries; cited from earlier work.

In the case of `CCC[C@H](N[C@@H](C)C(=O)N1[C@H](C(=O)O)C[C@@H]2CCCC[C@@H]21)C(=O)OCC.N=C(N)NCCC[C@H](N)C(=O)O` [Amorphous, Perindopril (L)-Arginine], the “Results (polymorphic form by PXRD)” value is listed as “Form γ” in series [1] (Drying at 25° C., 3 hrs); “Form γ” in series [1] (Humidity (RH >90%), 3 hrs); “polymorphic form γ” in series [1] (Humidity (RH >90%), 3 hrs, listed as amorphous Perindopril Arginine salt). Also, the Change in form entry in series [1] (in humidity) was “converted to Form γ”. Further, the “Result (polymorphic form by PXRD after slurry)” value in series [2] (ACN, volume 10, 25-30 ° C.) is given as “Form γ”. Also, the Form conversion entry in series [2] is listed as “converted to form γ”.
With `CCC[C@H](N[C@@H](C)C(=O)N1[C@H](C(=O)O)C[C@@H]2CCCC[C@@H]21)C(=O)OCC.N=C(N)NCCC[C@H](N)C(=O)O` [Form α, Perindopril (L)-Arginine], the “Results (polymorphic form by PXRD)” value in series [1] (Drying at 70° C., 3 days) is recorded as “Form α”; in series [1] (Drying at 100° C., 7 days), “Form α”; in series [1] (Humidity (RH >90%), 15 hrs) it was “Form γ”. Also, in series [1] (in humidity), the Change in form entry was “converted to Form γ”. The “Result (polymorphic form by PXRD after slurry)” value in series [2] (ACN, volume 5, 25-30 ° C.) is reported as “Form γ”; in series [2] (ACN, volume 5, 70-80 ° C.), “Form γ”; in series [2] (Toluene, volume 5, 25-30 ° C.) it was “Form γ”; in series [2] (n-heptane, volume 5, 25-30 ° C.) it was “Form α”. In addition, the “Form conversion or dissociation” value in series [2] is “No discernible form conversion or dissociation”. The Form conversion result in series [2] is on record as “converted to form γ”.
Regarding `CCC[C@H](N[C@@H](C)C(=O)N1[C@H](C(=O)O)C[C@@H]2CCCC[C@@H]21)C(=O)OCC.N=C(N)NCCC[C@H](N)C(=O)O` [Form γ, Perindopril (L)-Arginine], the PXRD result in series [3] (After 1 month) is given as “Same as initial”; in series [3] (After 2 months), “Same as initial”; in series [3] (After 15 days) it was “Same as initial”; in series [3] (Initial) it was “Form γ”. The “Purity (%) (HPLC)” value worked out at 99.2% in series [3] (After 1 month), 99.1% in series [3] (After 2 months), 99.2% in series [3] (After 15 days) and 99.1% in series [3] (Initial). Also, the “m/c (%) (moisture content, Karl-Fisher)” value in series [3] (After 1 month) stood at 4.4%; in series [3] (After 2 months) it was 5.0%; in series [3] (After 15 days), 4.2%; in series [3] (Initial), 3.8%. Also, the “Chemical and physical stability” value in series [3] (accelerated stability) is “chemically and physically very stable”. In addition, in series [3] (accelerated stability), the “Degradation in HPLC” value was “no degradation”. In addition, the “Increase in moisture content” value is “no substantial increase” in series [3] (accelerated stability) and “no substantial increase in moisture content” in series [4]. Besides, the “Results (polymorphic form by PXRD)” value was “Form γ” in series [1] (Drying at 70° C., 3 days); “Form γ” in series [1] (Drying at 100° C., 7 days); “Form γ” in series [1] (Humidity (RH >90%), 15 hrs). In addition, in series [1] (both drying and humid conditions), the Change in form result was “no change in form”. The “Result (polymorphic form by PXRD after slurry)” value in series [2] (ACN, volume 10, 80 ° C.) is recorded as “Form v”; in series [2] (Toluene, volume 10, 110 ° C.), “Form γ”; in series [2] (n-heptane, volume 10, 60-80 ° C.) it was “Form γ”. Moreover, the Relative thermodynamic stability result in series [2] (conclusion from stability and slurry observations) was “thermodynamically more stable than Perindopril (L)-Arginine amorphous and form α”. Also, the “Form conversion or dissociation” value in series [2] is reported as “No discernible form conversion or dissociation”.
Take `CC(C)(C)N.CCC[C@H](N[C@@H](C)C(=O)N1[C@H](C(=O)O)C[C@@H]2CCCC[C@@H]21)C(=O)OCC` [Perindopril tert-butylamine salt]: the Shelf-life in series [5] was ≤ 2 years.
